Measurements: PubChem BioAssay AID2744 (NMMLSC, 2010)
Activity calls are given as the source filed them.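 Rule for the calls: active = fitted half-maximal concentration for changing reporter fluorescence at or below a set limit; inactive = the rest.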

Target: Citrate synthase, peroxisomal (Saccharomyces cerevisiae (strain ATCC 204508 / S288c)) (UniProt P08679)
Experiment: CIT2-GFP expression modulators in yeast, dose response, flow cytometry, MLPCN hits (AID 2744)
Settings: S. cerevisiae CIT2-GFP strain, 3 h; for GFP fluorescence, higher = induction: at 33 µM (top of the series)

Sequence of Citrate synthase, peroxisomal (Saccharomyces cerevisiae (strain ATCC 204508 / S288c)) (P08679 whole entry, looked up): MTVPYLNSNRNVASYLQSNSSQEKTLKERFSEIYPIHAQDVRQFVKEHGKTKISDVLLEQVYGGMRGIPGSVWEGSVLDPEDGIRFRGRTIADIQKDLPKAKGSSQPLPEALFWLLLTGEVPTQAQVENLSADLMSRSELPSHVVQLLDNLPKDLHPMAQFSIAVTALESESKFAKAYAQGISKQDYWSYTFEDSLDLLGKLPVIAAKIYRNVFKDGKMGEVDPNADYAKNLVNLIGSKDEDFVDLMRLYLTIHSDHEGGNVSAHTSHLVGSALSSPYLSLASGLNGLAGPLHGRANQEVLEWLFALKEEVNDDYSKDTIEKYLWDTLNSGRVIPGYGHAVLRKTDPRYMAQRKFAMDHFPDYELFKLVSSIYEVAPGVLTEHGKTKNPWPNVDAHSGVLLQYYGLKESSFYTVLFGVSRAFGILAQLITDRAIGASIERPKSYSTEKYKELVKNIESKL

Structure (SMILES)	GFP fluorescence, higher = induction	EC50 (flow cytometry fluorescence)
C#CCOCCOCCOCCNc1nc(N2CCN(C(=O)CCCCCCCCCCNC(=O)[C@@H](CCC(=O)O)n3cc(CCCCCN)nn3)CC2)nc(N2CCN(C(=O)CCCCCCCCCCNC(=O)[C@H](CCCCN)n3cc(C[C@@H](C)CC)nn3)CC2)n1	inactive	
COc1ccc(C(=O)/C=C2/C(=O)Nc3ccccc32)cc1	inactive	
Cc1ccccc1N1C(=O)C(Cl)=C(N2CCN(c3ccccc3)CC2)C1=O	inactive	
CCN(CC)c1ccc(/C=C2/C(=O)c3ccc(C(=O)O)cc3C2=O)cc1	inactive	
COc1ccc(C(=O)/C=C2/C(=O)Nc3ccccc32)cc1OC	inactive	
CC(=O)Oc1ccc(N2C(=O)C3C4C=CC(CO)(O4)C3C2=O)cc1 (stereo not drawn)	inactive	
O=C(OCn1ncc(Br)c(Br)c1=O)c1ccc(F)cc1	inactive	
CCn1c(=O)c(C(C)=O)c(O)c2ccccc21	inactive	
Cc1cc(O)c(C(=O)/C=C/c2ccc(Cl)cc2)c(=O)o1	inactive	
O=C(Cc1ccc(Cl)cc1)NNC(=S)NC(=O)c1cccs1	inactive	
O=C(CSC1=NS(=O)(=O)c2ccccc21)Nc1ccccc1	inactive	
Cc1ccc(C(=O)Oc2oc(-c3ccco3)nc2C=Nc2ccc(Cl)cc2)cc1	inactive	
O=C(NNC(=S)NC(=O)c1ccco1)c1ccc(F)cc1	inactive	
Clc1cccc(CN2COc3c(cc(Cl)c4cccnc34)C2)c1	inactive	
COc1ccc(CCNC2=C(Cl)C(=O)N(CCc3ccccc3)C2=O)cc1OC	inactive	
COc1ccccc1N=Nc1ccc(O)c2ncccc12	inactive	
CCOC(=O)/C(=C\c1cn(C)c2ccccc12)[N+](=O)[O-]	inactive	
CC(=O)N(C(C)=O)c1ncnc2c1c(-c1ccc(Cl)cc1)nn2C(C)(C)C	inactive	
CC1=NNC(=O)/C1=C\c1cn(-c2ccccc2)nc1-c1ccccc1	inactive	
Cc1ccc(/C=C/C(=O)c2ccccc(=O)c2O)c(C)c1		14.7 µM
CCOc1ccc(C(Nc2cccnc2)c2cc(Cl)c3cccnc3c2O)cc1 (stereo not drawn)	inactive	
Cc1ccc(C2=NOC(=O)/C2=C\c2ccc(C)o2)cc1	inactive	
Cc1nc2ccc(NC(=O)c3oc4ccc(F)cc4c3C)cc2s1	inactive	
COc1ccc(N2C(=O)/C(=C/c3cccs3)C(=O)NC2=S)cc1	inactive	

Structure (SMILES)	GFP fluorescence, higher = induction	EC50 (flow cytometry fluorescence)
Cc1ccc(/C=C2\SC(=S)N(CC3CCCO3)C2=O)o1 (stereo not drawn)	inactive	
O=C1NC(=O)N(c2ccccc2)C(=O)/C1=C/c1ccc(Sc2ccccc2)o1	inactive	
COc1cc(/C=C2\CC/C(=C\c3cc(OC)c(O)c(OC)c3)C2=O)cc(OC)c1O	inactive	
CN(O)/C=c1/ccc2c(n1)C(=O)C=CC=2	inactive	
COc1cc(NC(=O)c2ccccc2[N+](=O)[O-])ccc1NC(=O)c1cc2ccccc2o1	inactive	
O=C(NC(=S)Nc1ccc2oc(=O)ccc2c1)c1cccc(Cl)c1	inactive	
O=C(Nc1ccc(NC(=O)c2cc3ccccc3o2)cc1)c1ccc2c(c1)OCCO2	inactive	
Cc1ccc(C(CC(=O)O)NC(=O)c2ccc(S(=O)(=O)N3CC(C)OC(C)C3)cc2)cc1 (stereo not drawn)	inactive	
CCCCC(=O)NC(=S)NNC(=O)CCc1ccccc1	inactive	
N#Cc1nccnc1S(=O)(=O)c1cccs1	inactive	
Nc1ccccc1SC(C[N+](=O)[O-])c1ccccc1 (stereo not drawn)	inactive	
CCOC(=O)c1ccc(N=Cc2nc(-c3ccccc3)oc2OC(C)=O)cc1	inactive	
COc1ccc(N2C(=O)C(Cl)=C(NCc3ccccc3)C2=O)cc1	inactive	
O=C1N(c2ccccc2C(F)(F)F)O[C@]1(c1ccccc1)C1CCCC1	inactive	
CC1(c2ccccc2)ON(c2ccccc2C(F)(F)F)C1=O (stereo not drawn)	inactive	
Cc1ccc(S(=O)(=O)N2CC(C(=O)O)=CC[C@H]2c2ccc(Cl)cc2)cc1	inactive	
Cc1cc(C)c2c(c1)/C(=C/C(=O)c1ccc(Br)s1)C(=O)N2	inactive	
O=C(Nc1ccccc1)c1nnsc1S(=O)(=O)c1ccc(Cl)cc1	inactive	
Cc1ccc(/C=C2\C(=O)NC(=S)N(c3ccc(F)cc3)C2=O)s1	inactive	
CC(=O)Oc1ccc(N2C(=O)C3C4C=CC(O4)C3C2=O)cc1 (stereo not drawn)	inactive	
CCC(=O)Nc1ccc(NC(=O)c2cc3ccccc3o2)cc1	inactive	
O=C1c2ccccc2C(=O)N1OS(=O)(=O)c1ccccc1	inactive	
COc1ccc(Cl)cc1C(Nc1cccnc1)c1ccc2cccnc2c1O (stereo not drawn)	inactive	
CC1=NOC(=O)/C1=C\c1ccc(-c2cc(Cl)ccc2Cl)o1	inactive	

Structure (SMILES)	GFP fluorescence, higher = induction	EC50 (flow cytometry fluorescence)
Clc1ccc(N=c2ssnc2Cl)cc1	inactive	
CN(c1ccccc1)c1ccc(/C=c2\s/c(=C(/C#N)C(=O)C(C)(C)C)n(Cc3ccco3)c2=O)cc1	inactive	
O=C1c2cccc3c([N+](=O)[O-])ccc(c23)C(=O)N1c1ccccn1	inactive	
Oc1c(C(Nc2cccc(C(F)(F)F)c2)c2ccncc2)ccc2cccnc12 (stereo not drawn)	inactive	
CCCCCCCCn1sccc1=O	inactive	
N#C/C(=C\c1ccccn1)c1nc2ccccc2s1	inactive	
C[n+]1ccc(/C=C/c2c[nH]c3ccccc23)cc1	inactive	
COc1cc(/C=C2/C(=O)ON=C2c2ccccc2)ccc1O	inactive	
COc1cccc(/C=N/Nc2ncc(C(F)(F)F)cc2Cl)c1O	inactive	
O=C1C(Cl)=C(Nc2ccccc2O)C(=O)N1c1ccccc1	inactive	
CCSc1nnc(NC(=O)c2ccccn2)s1	inactive	
CCc1nc2ccccc2c(=O)n1NC(=O)c1c(O)c2cccc3c2n(c1=O)CCC3	inactive	
CCN(CC)c1ccc(/C=C2\C(=O)c3ccc(C(=O)O)cc3C2=O)cc1	inactive	
O=C1N(c2ccccc2C(F)(F)F)O[C@@]1(c1ccccc1)C1CCCCC1	inactive	
Cc1ccnc(N2C(=O)c3cccc4c([N+](=O)[O-])ccc(c34)C2=O)c1	inactive	
CS(=O)(=O)c1nc(-c2ccccc2)cc(C(F)(F)F)n1	inactive	
O=C(COc1c(Br)cc(Br)c2cccnc12)N1CCc2ccccc2C1	inactive	
Cc1c(C)c2ccc(Oc3ccc([N+](=O)[O-])cc3C(F)(F)F)c(C)c2oc1=O	inactive	
O=C1c2cccc3c([N+](=O)[O-])ccc(c23)C(=O)N1CCc1ccccn1	inactive	
CN1CCN(C(c2ccc(C(F)(F)F)cc2)c2ccc3cccnc3c2O)CC1 (stereo not drawn)	inactive	
C#CCOc1c(Br)cc(/C=C2/C(=O)ON=C2C)cc1OC	inactive	
O=C1c2sc3nc4ccccc4n3c2C(=O)N1c1ccccc1Cl	inactive	
COc1ccccc1-c1nc2s/c(=C\c3cccs3)c(=O)n2n1	inactive	
COc1ccc(/C=C/C(=O)NC(=S)NNC(=O)c2cnccn2)cc1	inactive	

Structure (SMILES)	GFP fluorescence, higher = induction	EC50 (flow cytometry fluorescence)
COc1ccc2c(c1)c1nnc(SC)nc1n2C	inactive	
C/C(=N\Nc1ncnc2sc(C)c(C)c12)c1ccccn1	inactive	
Cc1ccc(C)c(/C=C/C(=O)c2ccccc(=O)c2O)c1	inactive	
Cc1ccc(S(=O)(=O)c2ncccc2[N+](=O)[O-])cc1	inactive	
O=C1N(c2ccccc2C(F)(F)F)O[C@@]1(c1ccccc1)C1CCCC1	inactive	
On1ccccc1=S	inactive	
CCC(C)/C(C)=N/NC(=O)c1ccc(COc2ccc(Cl)c(C)c2)cc1 (stereo not drawn)	inactive	
Cc1nn2c(-c3ccncc3)nnc2c2ccccc12	inactive	
O=[N+]([O-])c1cc(O)c2ncccc2c1	inactive	
O=C(Nc1nnc(-c2ccc(F)cc2)o1)c1cccc([N+](=O)[O-])c1	inactive	
Cc1ccc(C(=O)Oc2oc(-c3ccccc3)nc2C=Nc2ccc(N(C)C)cc2)cc1	inactive	
O=C1N(c2ccccc2C(F)(F)F)OC1(Cc1ccccc1)c1ccccc1 (stereo not drawn)	inactive	
Cc1[nH]c(-c2ccccn2)nc(=S)c1Cl	inactive	
CSC1=NS(=O)(=O)c2c(C)nn(C)c2S1	inactive	
C#CCOCCOCCOCCNc1nc(N2CCN(C(=O)CCCCCCCCCCNC(=O)[C@H](CCCCN)n3cc(CCO)nn3)CC2)nc(N2CCN(C(=O)CCCCCCCCCCNC(=O)[C@H](CCCCN)n3cc(C[C@@H](C)CC)nn3)CC2)n1	inactive	
CCCCCCCCC/C(=N\O)c1ccccn1	inactive	
C/C(=N\NC(=O)c1cc2ccccc2cc1O)c1ccccn1	inactive	
O=C(Nc1nnc(-c2ccc3c(c2)CCCC3)o1)c1ccc(Cl)cc1Cl	inactive	
Cc1cc(C)nc(S/C=C/C(=O)c2ccccc2)n1	inactive	
COc1ccc([C@]2(C(C)C)ON(c3ccccc3C(F)(F)F)C2=O)cc1	inactive	
CS(=O)(=O)c1nc(-c2cccs2)cc(C(F)(F)F)n1	inactive	
